Experimental data as given in US11925690B2, “Bifunctional molecules for targeting Rpn11” (AMPHISTA THERAPEUTICS LTD, priority 2018, dated 2024).

Experiments:
Assay type in all cases: cell-based
Brd3 [1] = biological target: T1, Brd3 (Homo sapiens, UniProt Q15059); test: Time-dependent BET degradation, immunoblot; conditions: HEK293, Brd3, 1 μM; for Dmax at 1 µM: 0-24 hrs; for Abs. T1/2: time to deplete 50% of the protein relative to DMSO; for T1/2: time to reach 50% of the Dmax
Description: (§1) Immunoblotting. Proteins were separated by SDS-PAGE on NuPage 4-12% Bis-Tris gels, followed by transfer to Amersham Protran 0.45 NC nitrocellulose membrane (GE Healthcare) using wet transfer. Membranes were blocked using 5% w/v milk in Tris-buffered saline (TBS) with 0.1% Tween-20. Blots were probed (overnight at 4 °C) using anti-Brd2 (Abcam ab139690, 1:2,000 dilution), anti-Brd3 (Abcam ab50818, 1:500 dilution), and anti-Brd4 (Abcam ab128874, 1:1,000 dilution) primary antibodies, as appropriate. The next day, blots were washed with TBST and incubated (1 h at Room temperature) with anti-Tubulin hFAB-rhodamine (BioRad, 12004166) primary antibody, and either anti-rabbit IRDye 800CW (Licor 1:1,000 dilution) or anti-mouse IRDye 800CW (Licor 1:1,000 dilution) secondary antibody. Blots were developed using a Bio-Rad ChemiDoc MP Imaging System, and band quantification was performed using Image Studio software (LiCor). Band intensities were normalized to the tubulin loading control and reported as % of the average 0.1% DMSO vehicle intensity. Degradation data was plotted and analysed using Prism (Graphpad, version 8).
(§2) HEK293 (0.5×10^6) cells were seeded in standard 6-well plates (2 mL medium) overnight before treatment with compounds at 1 μM concentration, with a final DMSO concentration of 0.1% v/v. After incubation for the desired time (0-24 hrs), cells were washed with DPBS (Gibco) and lysed using 85 μL RIPA buffer (Sigma-Aldrich) supplemented with complete Mini EDTA-free protease inhibitor cocktail (Roche) and benzonase. Lysates were clarified by centrifugation (20000 g, 10 min, 4° C.) and the total protein content of the supernatant was quantified using a Bradford colorimetric assay. Samples were prepared using equal amounts of total protein and LDS sample buffer (Invitrogen). Band intensities were normalized to the tubulin loading control and reported as % of the average 0.1% DMSO vehicle intensity. Degradation data was plotted and analysed using Prism (Graphpad, version 8).
(§3) MZ1 and 11JQ17 were used at 1 μM (4 h) for positive and negative controls, respectively. […]

Brd4 (L) [2] = biological target: T2, Brd4 (L) (Homo sapiens, UniProt O60885); test: Time-dependent BET degradation, immunoblot; design: Dmax: dose or concentration left out as unconfirmed; conditions: HEK293, Brd4 (L); for Dmax: 0-24 hrs; for Abs. T1/2 / T1/2: 1 μM; for Abs. T1/2: time to deplete 50% of the protein relative to DMSO; for T1/2: time to reach 50% of the Dmax
T2 construct: endogenous in cells; host or cells: HEK293 (CRL-1573), HeLa (CCL-2)
Description: as §1, §2, §3

Brd4 (S) [3] = biological target: T3, Brd4 (S) (Homo sapiens, UniProt O60885); test: Time-dependent BET degradation, immunoblot; design: Dmax: dose or concentration left out as unconfirmed; conditions: HEK293, Brd4 (S); for Dmax: 0-24 hrs; for Abs. T1/2 / T1/2: 1 μM; for Abs. T1/2: time to deplete 50% of the protein relative to DMSO; for T1/2: time to reach 50% of the Dmax
T3 construct: endogenous in cells; host or cells: HEK293 (CRL-1573), HeLa (CCL-2)
Description: as §1, §2, §3

Brd2, Brd3 and Brd4 = test: Immunoblot analysis of BET protein levels in HEK293 cells; conditions: for Brd2, Brd3 and Brd4 protein levels (FIG. 5): HEK293, 1 μM, various time points; for Brd2, Brd3 and Brd4 protein levels (FIG. 4): increasing concentrations
Description: Cell culture. HeLa (CCL-2) and HEK293 (CRL-1573) cells were purchased from ATCC and cultured in DMEM medium (Gibco) supplemented with 10% FBS, 100 μg/mL penicillin/streptomycin and L-glutamine. Cells were grown at 37° C. and 5% CO2 and were kept no longer than 30 passages. All cell lines were routinely tested for mycoplasma contamination using MycoAlert kit from Lonza.
HeLa (5×10^5) and HEK293 (1×10^6) cells were seeded in standard 6-well plates (2 mL medium) overnight before treatment with 1 μM compound with a final DMSO concentration of […]. After 4 h incubation time, cells were washed with DPBS (Gibco) and lysed using 85 μL RIPA buffer (Sigma-Aldrich) supplemented with cOmplete Mini EDTA-free protease inhibitor cocktail (Roche) and benzonase. Lysates were clarified by centrifugation (20000 g, 10 min, 4° C.) and the total protein content of the supernatant was quantified using a Bradford colorimetric assay. Samples were prepared using equal amounts of total protein and LDS sample buffer (Invitrogen).
as §1
as §2, with “HeLa (5×10^5) and HEK293” for “HEK293”, “(1×10^6)” for “(0.5×10^6)”, “the desired concentration (1 nM-10 μM),” for “1 μM concentration,”, “4 h treatment time,” for “incubation for the desired time (0-24 hrs),”, “cOmplete” for “complete”
HEK293 (0.5×10^6) cells were seeded in standard 6-well plates (2 mL medium) overnight before treatment with compounds at 1 μM concentration, with a final DMSO concentration of 0.1% v/v. […] Lysates were clarified by centrifugation (20000 g, 10 min, 4° C.) and the total protein content of the supernatant was quantified using a Bradford colorimetric assay. […] Degradation data was plotted and analysed using Prism (Graphpad, version 8).

Brd4 (L) [4] = biological target: T2, Brd4 (L); test: Concentration-dependent BET degradation, immunoblot; conditions: 4 h, 1 nM-10 μM
Description: as §1
as §2, with “HeLa (5×10^5) and HEK293” for “HEK293”, “(1×10^6)” for “(0.5×10^6)”, “the desired concentration (1 nM-10 μM),” for “1 μM concentration,”, “4 h treatment time,” for “incubation for the desired time (0-24 hrs),”, “cOmplete” for “complete”
(§4) MZ1 and 11JQ17 were used at 1 μM for positive and negative controls, respectively. […] For the table, Dmax: +(Dmax≤25%); ++(26%≤Dmax≤50%); +++(51%≤Dmax≤70%); ++++(71%≤DC50: A (DC50≤50 nM); B (51 nM≤DC50≤500 nM); C (501 nM≤DC50).

Brd4 (S) [5] = biological target: T3, Brd4 (S); test: as above; conditions: 4 h, 1 nM-10 μM
Description: as §1
as §2, with “HeLa (5×10^5) and HEK293” for “HEK293”, “(1×10^6)” for “(0.5×10^6)”, “the desired concentration (1 nM-10 μM),” for “1 μM concentration,”, “4 h treatment time,” for “incubation for the desired time (0-24 hrs),”, “cOmplete” for “complete”
as §4

Brd3 [6] = biological target: T1, Brd3; test: as above; design: endogenous in cells; host or cells: HEK293 (CRL-1573), HeLa (CCL-2); conditions: 1 nM-10 μM
Description: as §1
as §2, with “HeLa (5×10^5) and HEK293” for “HEK293”, “(1×10^6)” for “(0.5×10^6)”, “the desired concentration (1 nM-10 μM),” for “1 μM concentration,”, “4 h treatment time,” for “incubation for the desired time (0-24 hrs),”, “cOmplete” for “complete”
as §4

Brd2 = Brd2 (Homo sapiens, UniProt P25440); test: as above; design: endogenous in cells; host or cells: HEK293 (CRL-1573), HeLa (CCL-2); conditions: 1 nM-10 μM
Sequence of Brd2 (P25440 whole entry): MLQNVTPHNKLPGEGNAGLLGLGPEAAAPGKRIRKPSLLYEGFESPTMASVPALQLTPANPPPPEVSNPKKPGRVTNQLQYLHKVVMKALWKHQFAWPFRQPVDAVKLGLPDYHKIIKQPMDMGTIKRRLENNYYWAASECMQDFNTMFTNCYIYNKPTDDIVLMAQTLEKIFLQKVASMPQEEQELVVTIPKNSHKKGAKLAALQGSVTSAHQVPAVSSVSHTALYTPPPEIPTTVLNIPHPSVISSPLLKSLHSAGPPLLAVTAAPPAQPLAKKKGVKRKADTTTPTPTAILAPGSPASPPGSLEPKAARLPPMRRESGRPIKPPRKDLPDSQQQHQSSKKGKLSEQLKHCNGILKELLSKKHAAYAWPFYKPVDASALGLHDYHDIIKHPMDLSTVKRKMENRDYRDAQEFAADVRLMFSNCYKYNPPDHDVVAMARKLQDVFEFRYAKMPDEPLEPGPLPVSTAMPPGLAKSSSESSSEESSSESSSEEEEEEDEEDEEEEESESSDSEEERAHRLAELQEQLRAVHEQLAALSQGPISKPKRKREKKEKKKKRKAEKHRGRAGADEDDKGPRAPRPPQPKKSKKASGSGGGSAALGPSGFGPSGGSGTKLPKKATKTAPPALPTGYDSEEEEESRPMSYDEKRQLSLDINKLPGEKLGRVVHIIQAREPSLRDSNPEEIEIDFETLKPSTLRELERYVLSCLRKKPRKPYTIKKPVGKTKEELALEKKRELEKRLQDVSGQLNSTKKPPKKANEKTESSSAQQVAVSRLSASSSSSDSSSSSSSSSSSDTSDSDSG
Description: as §1
as §2, with “HeLa (5×10^5) and HEK293” for “HEK293”, “(1×10^6)” for “(0.5×10^6)”, “the desired concentration (1 nM-10 μM),” for “1 μM concentration,”, “4 h treatment time,” for “incubation for the desired time (0-24 hrs),”, “cOmplete” for “complete”
as §4

T1 sequence (Q15059 whole entry): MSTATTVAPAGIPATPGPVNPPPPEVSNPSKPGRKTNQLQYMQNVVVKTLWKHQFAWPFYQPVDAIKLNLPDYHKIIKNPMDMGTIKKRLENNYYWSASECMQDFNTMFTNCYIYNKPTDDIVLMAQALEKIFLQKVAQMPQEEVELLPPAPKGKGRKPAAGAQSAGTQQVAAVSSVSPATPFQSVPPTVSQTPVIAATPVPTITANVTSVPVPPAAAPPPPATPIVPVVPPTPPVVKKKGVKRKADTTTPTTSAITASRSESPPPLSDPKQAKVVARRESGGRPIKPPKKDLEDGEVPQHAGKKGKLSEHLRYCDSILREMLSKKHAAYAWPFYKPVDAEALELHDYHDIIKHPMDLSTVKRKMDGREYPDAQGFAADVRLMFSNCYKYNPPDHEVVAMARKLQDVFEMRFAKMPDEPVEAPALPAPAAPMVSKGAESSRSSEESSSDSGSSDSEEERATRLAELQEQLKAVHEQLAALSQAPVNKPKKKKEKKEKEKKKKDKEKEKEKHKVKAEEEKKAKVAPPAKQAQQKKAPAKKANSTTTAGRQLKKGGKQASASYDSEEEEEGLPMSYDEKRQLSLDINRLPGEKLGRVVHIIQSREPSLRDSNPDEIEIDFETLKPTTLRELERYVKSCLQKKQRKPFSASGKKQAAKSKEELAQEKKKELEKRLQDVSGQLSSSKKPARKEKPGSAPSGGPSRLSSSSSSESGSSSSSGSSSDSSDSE

Dmax at 1 µM (Brd3 [1]) [%]	Abs. T1/2 (Brd3 [1]) [h]	T1/2 (Brd3 [1]) [h]	Dmax (Brd4 (L) [2]) [%]	Abs. T1/2 (Brd4 (L) [2]) [h]	T1/2 (Brd4 (L) [2]) [h]	Dmax (Brd4 (S) [3]) [%]	Abs. T1/2 (Brd4 (S) [3]) [h]	T1/2 (Brd4 (S) [3]) [h]	DC50 (Brd4 (L) [4]; HEK293, Brd4 (L)) [µM]	Dmax (Brd4 (L) [4]; HEK293, Brd4 (L)) [%]	DC50 (Brd4 (L) [4]; HeLa) [µM]	Dmax (Brd4 (L) [4]; HeLa) [%]	DC50 (Brd4 (S) [5]; HEK293, Brd4 (S)) [µM]	Dmax (Brd4 (S) [5]; HEK293, Brd4 (S)) [%]	DC50 (Brd4 (S) [5]; HeLa) [µM]	Dmax (Brd4 (S) [5]; HeLa) [%]	DC50 (Brd3 [6]; HEK293, Brd3, 4 h) [µM]	Dmax (Brd3 [6]; HEK293, Brd3, 4 h) [%]	DC50 (Brd3 [6]; HeLa, Brd3, 4 h) [µM]	SMILES	other results
95	3.4	2.9	98	1.2	1.2	99	1.9	1.9	0.051 to 0.5	≥ 71	≤ 0.05	≥ 71	0.051 to 0.5	≥ 71	≤ 0.05	≥ 71	≥ 0.501	≥ 71	0.051 to 0.5	Cc1sc2c(c1C)C(c1ccc(Cl)cc1)=N[C@@H](CC(=O)NCCCCNC(=O)c1cc(S)c3ncc(C(=O)NCCc4nccs4)cc3c1)c1nnc(C)n1-2 [Example 11JQ7]	Brd2, Brd3 and Brd4 protein levels (FIG. 1) (Brd2, Brd3 and Brd4; HEK293, 1 μM compound, 4 h, relative to 0.1% DMSO): approaching the potency of PROTAC MZ1; Dmax (Brd3 [6]; HeLa, Brd3, 4 h): ≥ 71%; DC50 (Brd2; HEK293, Brd2, 4 h): 0.051 to 0.5 µM; Dmax (Brd2; HEK293, Brd2, 4 h): ≥ 71%; DC50 (Brd2; HeLa, Brd2, 4 h): ≥ 0.501 µM; Dmax (Brd2; HeLa, Brd2, 4 h): ≥ 71%
70	2.6	1.5	90	1.1	0.8	90	1.2	0.9	0.051 to 0.5	51 to 70	0.051 to 0.5	51 to 70	0.051 to 0.5	51 to 70	0.051 to 0.5	51 to 70	0.051 to 0.5	26 to 50	0.051 to 0.5	Cc1sc2c(c1C)C(c1ccc(Cl)cc1)=N[C@@H](CC(=O)NCCOCCNC(=O)c1cc(SC(=O)c3ccccc3)c3ncc(C(=O)NCCc4nccs4)cc3c1)c1nnc(C)n1-2 [Example 11JQ15]	Brd2, Brd3 and Brd4 protein levels (FIG. 5) (Brd2, Brd3 and Brd4): depletion of Brd2, Brd3 and Brd4 protein levels; Brd2, Brd3 and Brd4 protein levels (FIG. 4) (Brd2, Brd3 and Brd4; 4 h): depletion of Brd2, Brd3 and Brd4 protein levels; Dmax (Brd3 [6]; HeLa, Brd3, 4 h): 26 to 50%; DC50 (Brd2; HEK293, Brd2, 4 h): 0.051 to 0.5 µM; Dmax (Brd2; HEK293, Brd2, 4 h): 26 to 50%; DC50 (Brd2; HeLa, Brd2, 4 h): 0.051 to 0.5 µM; Dmax (Brd2; HeLa, Brd2, 4 h): 26 to 50%
95	1.9	1.6	98	1.0	1.0	95	0.6	0.6	≤ 0.05	≥ 71	0.051 to 0.5	≥ 71	≤ 0.05	≥ 71	0.051 to 0.5	≥ 71	≤ 0.05	≥ 71	≥ 0.501	Cc1sc2c(c1C)C(c1ccc(Cl)cc1)=N[C@@H](CC(=O)NCCCCNC(=O)c1cc(SC(=O)c3ccccc3)c3ncc(C(=O)NCCc4nccs4)cc3c1)c1nnc(C)n1-2 [Example 11JQ16]	Brd2, Brd3 and Brd4 protein levels (FIG. 5) (Brd2, Brd3 and Brd4): depletion of Brd2, Brd3 and Brd4 protein levels; Brd2, Brd3 and Brd4 protein levels (FIG. 4) (Brd2, Brd3 and Brd4; 4 h): depletion of Brd2, Brd3 and Brd4 protein levels; Dmax (Brd3 [6]; HeLa, Brd3, 4 h): 51 to 70%; DC50 (Brd2; HEK293, Brd2, 4 h): 0.051 to 0.5 µM; Dmax (Brd2; HEK293, Brd2, 4 h): ≥ 71%; DC50 (Brd2; HeLa, Brd2, 4 h): 0.051 to 0.5 µM; Dmax (Brd2; HeLa, Brd2, 4 h): 51 to 70%
